Data as given in patent publication US8642785B2, “Photolabile dinitroindolinyl based compounds” (Philadelphia Health & Education Corporation, priority 2007, dated 2014).
Several values for one entry are separate records, joined by “and”; a condition that tells them apart may be missing. Equal entries are not always repeated. Values belong to the compound of their own block, whether it stands above or below them.

Tests used:
[1] = Basic photochemical properties: one-photon photolysis / quantum yield determination by comparison with MNI-Glu; type: physicochemical; conditions: for φ, quantum yield: Table 1, measured against MNI-Glu, filtered 280-400 nm Hg lamp; for quantum yield of photolysis: pH 7.4, compared with MNI-Glu; for photolyzed faster than MNI-Glu: pH 7.4, continuous-wave mercury arc lamp; for ε · φ: product of extinction coefficient and quantum yield, in M-1 cm-1 (unit assumed)
Protocol: The data imply that the quantum yield for release of L-glutamate from CDNI-Glu was about 0.5.
The extent of photolysis was measured either by HPLC (with inosine as the internal standard), or using the inherent changes in the UV-visible absorption spectra of the chromophores (FIGS. 4A-4D).
Quantum yield determination. The quantum yield for uncaging the new caged amino acids (CDNI-Glu, CNL-Glu, CNI-GABA and CNI-GABA) were measured by comparing the time of photolysis with the filtered (280-400 nm) output of a 500 W medium pressure Hg lamp of an equimolar solution (0.25 mM) of MNI-Glu and new cage. Inosine was used an inert internal standard. The path-length of the cuvette was 0.1 mm. The extent of reaction was monitored by HPLC as described previously (Huang, et al., 2005). […] Both methods gave very similar results.

GABA receptors [2] = assay: 2-photon uncaging of caged GABA on hippocampal CA1 neurons in acutely isolated brain slices; type: cell-based, rat; conditions: for concentration of caged compound required to evoke currents / laser power required to evoke currents: 2-photon uncaging; for laser power required to evoke currents: 720 nm; for block of GABA receptor by the cage before uncaging: CNI-GABA at high concentrations, CDNI-GABA in smaller amount
[3] = Two-photon (action) cross section; type: physicochemical; conditions: for δ (relative), two-photon action cross section: MNI-Glu = 1
Protocol: (§1) What is the reason for continued focus on cage development? […] The first good caged glutamate was CNB-Glu (Weiboldt, et al., 1994). UV-laser excitation released glutamate quickly and with usable efficiency from this caged compound. […] For this reason, Bhc- and DMCNB-Glu were synthesized (Furuta et al., 1999; Ellis-Davies, 1999). […] However, when used for 2-photon photolysis MNI-Glu is applied at high concentrations (5-12 mM) that must be irradiated with powers at the very limit of tolerance for brain tissue (Matsuzaki, et al., 2004). For this reason, an even better caged glutamate is desired. An NI-Glu derivative was made containing a cross-linked benzophenone chromophore (“antenna-NI-Glu”, Papageorgiou, et al., 2004). When UV light (300-308 nm) was used to excite the benzophenone antenna, triplet energy transfer to the MNI cage released glutamate with high efficiency, which dropped considerably (ca. 2.5-fold) at 354 nm. […] In contrast, the inventor was able to uncage CDNI-Glu at 354 nm with very high efficiency (similar to the antenna-NI-Glu at 300 nm).
Given the power-squared law for 2-photon excitation (Denk, et al., 1990), this implies that the new chromophore is about 140-250 higher action cross-section for 2-photon uncaging, defined by Denk et al. (1990).
(§2) In order to evoke currents with CNI-GABA 20 mW for 2 ms and 10 mM must be used, whereas with CDNI-GABA only 4 mW and 0.5 mM are required. […] The effectiveness of CDNI-GABA is believed to be an important asset because high concentrations of the cages block GABA receptor before uncaging.
AMPA receptor currents evoked by 2-photon uncaging of MNI-Glu and CDNI-Glu on CA1 pyramidal neurons in acutely isolated brain slices were compared. An image of neuron from slice of hippocampus Post-natal day 15 (P15) rat brain was obtained. MNI-Glu and CNDI-Glu were applied at 10 mM and 2.5 mM to the same neuron, and glutamate was uncaged in the image area at 2 power levels according to methods previously described in Matsuzaki, et al., 2001 (compare FIGS. 5A & 5B, MNI-Glu currents shown on right hand side, CDNI-Glu currents shown on left hand side). The currents evoked by uncaging from CNDI-Glu were approximately 2-3× larger than MNI-Glu, implying 5-10× better reactivity for 2-photon uncaging.

[4] = laser flash photolysis (Gee, et al., 1994); cited from earlier work
GABA receptors [5] = conditions: outside-out membrane patches (Jayaraman, et al., 1999); cited from earlier work
AMPA receptors = assay: 2-photon uncaging of caged glutamate, AMPA receptor currents on CA1 pyramidal neurons in acutely isolated brain slices; type: cell-based, rat
[6] = Hydrolysis of solutions stored at 4° C.; type: physicochemical
Protocol: as §1

[7] = Solubility in physiological buffer; type: physicochemical; conditions: for solubility (in words): physiological buffer / pH
Protocol: as §2
Advantageously, inventor had discovered that addition of the negative charge with CDNI-Glu solves both of these problems

[8] = 1 GM=10^−50 cm^4s/photon; background; cited from earlier work
[9] = background; cited from earlier work

SMILES: NCCCC(=O)N1CCc2c(OCC(=O)O)c([N+](=O)[O-])cc([N+](=O)[O-])c21 [CDNI-GABA, (1-[4-Aminobutanoyl]-5,7-dinitroindolin-4-yloxy)acetic acid]
ε, molar extinction coefficient [1]: 8,600 M^−1 cm^−1
φ, quantum yield [1]: 0.6
quantum yield of photolysis [1]: 0.6
photolyzed faster than MNI-Glu [1]: 700%
ε · φ [1]: 5160
concentration of caged compound required to evoke currents (GABA receptors [2]): 0.5 mM and 0.55 mM
laser power required to evoke currents (GABA receptors [2]): 4 mW
block of GABA receptor by the cage before uncaging (GABA receptors [2]): not blocking before uncaging
effectiveness relative to CNI-GABA (GABA receptors [2]; GABA receptors on CA1 neurons): 5-10 times
δ (relative), two-photon action cross section [3]: 5-10

SMILES: NCCCC(=O)OC(C(=O)O)c1ccccc1[N+](=O)[O-] (centres unmarked) [CNB-GABA]
half-time of neurotransmitter release [4]: about 30 microseconds
10-90% rise time of activated currents (GABA receptors [5]): about 8 ms

SMILES: N[C@@H](CCC(=O)N1CCc2c(OCC(=O)O)c([N+](=O)[O-])cc([N+](=O)[O-])c21)C(=O)O [CDNI-Glu]
ε, molar extinction coefficient [1]: 8,600 M^−1 cm^−1
release of L-glutamate on photolysis ([1]; NMR analysis of the reaction mixture): essentially quantitatively
φ, quantum yield [1]: 0.5
quantum yield for release of L-glutamate ([1]; pH 7.4): about 0.5
quantum yield of photolysis [1]: about 0.5
ε · φ [1]: 4,300
currents evoked by 2-photon uncaging, times larger than MNI-Glu (AMPA receptors; 2.5 mM vs MNI-Glu 10 mM on the same neuron, P15 rat hippocampus slice, listed as CNDI-Glu): 2-3 times and 3-4 times
biological inertness of the cage toward AMPA receptors (AMPA receptors; before uncaging): biologically inert
rise- and decay-times of the evoked currents compared with MNI-Glu (AMPA receptors; same CA1 pyramidal neuron): similar
AMPA-receptor currents relative to MNI-Glu (AMPA receptors; sequential alternating application and uncaging on the same CA1 pyramidal neuron, same laser energy): five-times larger
hydrolysis after 13 d [6]: 7%
solubility (in words) [7]: smooth solubilization of useful concentrations
action cross-section for 2-photon uncaging, higher than MNI-Glu ([3]; implied by power-squared law for 2-photon excitation): 140-250
δ (relative), two-photon action cross section [3]: 5-10

SMILES: N[C@@H](CCC(=O)OC(C(=O)O)c1ccccc1[N+](=O)[O-])C(=O)O (some centres unmarked) [CNB-Glu]
2-photon cross section [8]: less than 0.001 GM
hydrolytic stability (in words) [9]: some what hydrolytically unstable

Second part, led by results:

current signals from hippocampal neurons on 2-photon uncaging (AMPA receptors; 1 mM solutions): did not evoke any current signals
concentration of solutions that could be made [7]: ≥ 1 mM
behaviour of buffer solution when frozen ([7]; buffer, frozen, then room temperature): precipitate in buffer when frozen
SMILES: COc1c([N+](=O)[O-])cc([N+](=O)[O-])c2c1CCN2C(=O)CCC(N)C(=O)O (centres unmarked) [MDNI-Glu, 4-methoxy-5,7-dinitroinlinylglutamate]

ε, molar extinction coefficient [1]: 4,300 M^−1 cm^−1
fraction photolyzed during the time required for complete photolysis of CDNI-Glu ([1]; NMR analysis of a photolysis solution of 7, CNI-Glu and CDNI-Glu): about 10%
φ, quantum yield [1]: 0.1
quantum yield of photolysis [1]: about 0.1
ε · φ [1]: 430
δ (relative), two-photon action cross section [3]: 1
SMILES: NC(CCC(=O)N1CCc2c(OCC(=O)O)ccc([N+](=O)[O-])c21)C(=O)O (centres unmarked) [CNI-Glu, 4-carboxymethoxy-7-nitroinlinylglutamate]

ε, molar extinction coefficient [1]: 4,300 M^−1 cm^−1
φ, quantum yield [1]: 0.1
quantum yield of photolysis [1]: 0.1
photolyzed faster than MNI-Glu [1]: about 10%
ε · φ [1]: 430
block of GABA receptor by the cage before uncaging (GABA receptors [2]): partially blocks
δ (relative), two-photon action cross section [3]: 1
SMILES: NCCCC(=O)N1CCc2c(OCC(=O)O)ccc([N+](=O)[O-])c21 [CNI-GABA]
concentration of caged compound required to evoke currents (GABA receptors [2]): 10 mM
laser power required to evoke currents (GABA receptors [2]): 20 mW

solubility (in words) [7]: not soluble enough for uncaging
SMILES: COc1ccc([N+](=O)[O-])c2c1CCN2C(=O)CCCN [MNI-GABA]

ε, molar extinction coefficient [1]: 4,300 M^−1 cm^−1
φ, quantum yield [1]: 0.085
ε · φ [1]: 366
hydrolysis after 2 d [6]: no detectable hydrolysis
hydrolysis after 13 d [6]: 1%
δ (relative), two-photon action cross section [3]: 1
SMILES: COc1ccc([N+](=O)[O-])c2c1CCN2C(=O)CC[C@H](N)C(=O)O [MNI-Glu, Methoxynitroindoline-caged L-glutamate, reference compound]
